Experimental data from publication PMC10638548 (Acta Pharmaceutica Sinica. B, 2023).

Key:
CYP2A6 = target: T1, CYP2A6 (Homo sapiens, UniProt P11509); settings: 20 μmol/L NMV, 10 pmol CYP, 1 mmol/L NADPH, 37 °C, 1 h
T1 sequence (P11509 1-494): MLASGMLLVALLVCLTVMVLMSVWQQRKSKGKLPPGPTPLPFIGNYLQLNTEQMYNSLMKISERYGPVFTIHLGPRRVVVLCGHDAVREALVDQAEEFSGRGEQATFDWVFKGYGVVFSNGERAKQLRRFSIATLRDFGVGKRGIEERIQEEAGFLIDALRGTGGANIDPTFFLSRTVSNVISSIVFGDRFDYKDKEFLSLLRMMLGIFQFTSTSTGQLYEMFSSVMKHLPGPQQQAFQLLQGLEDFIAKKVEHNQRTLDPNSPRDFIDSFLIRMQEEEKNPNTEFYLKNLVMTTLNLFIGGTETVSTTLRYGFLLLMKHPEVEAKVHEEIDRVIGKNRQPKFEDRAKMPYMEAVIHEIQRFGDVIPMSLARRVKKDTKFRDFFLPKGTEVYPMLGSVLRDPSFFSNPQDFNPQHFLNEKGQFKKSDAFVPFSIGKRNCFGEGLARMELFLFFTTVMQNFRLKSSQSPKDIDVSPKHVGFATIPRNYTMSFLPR

CYP3A4 = CYP3A4 (Homo sapiens, UniProt P08684); settings: 20 μmol/L NMV, 10 pmol CYP, 1 mmol/L NADPH, 37 °C, 1 h
[1] = 20 μmol/L NMV, 0.1 mg HLM, 1 mmol/L NADPH, 37 °C, 1 h
CYP3A5 = CYP3A5 (Homo sapiens, UniProt P20815); settings: 20 μmol/L NMV, 10 pmol CYP, 1 mmol/L NADPH, 37 °C, 1 h
CYP2C19 = CYP2C19 (Homo sapiens, UniProt P33261); settings: 20 μmol/L NMV, 10 pmol CYP, 1 mmol/L NADPH, 37 °C, 1 h
[2] = cited from earlier work
CYP2E1 = CYP2E1 (Homo sapiens, UniProt P05181); settings: 20 μmol/L NMV, 10 pmol CYP, 1 mmol/L NADPH, 37 °C, 1 h
CYP1A2 = target: T2, CYP1A2 (Homo sapiens, UniProt P05177); settings: 20 μmol/L NMV, 10 pmol CYP, 1 mmol/L NADPH, 37 °C, 1 h
T2 sequence (P05177 1-516): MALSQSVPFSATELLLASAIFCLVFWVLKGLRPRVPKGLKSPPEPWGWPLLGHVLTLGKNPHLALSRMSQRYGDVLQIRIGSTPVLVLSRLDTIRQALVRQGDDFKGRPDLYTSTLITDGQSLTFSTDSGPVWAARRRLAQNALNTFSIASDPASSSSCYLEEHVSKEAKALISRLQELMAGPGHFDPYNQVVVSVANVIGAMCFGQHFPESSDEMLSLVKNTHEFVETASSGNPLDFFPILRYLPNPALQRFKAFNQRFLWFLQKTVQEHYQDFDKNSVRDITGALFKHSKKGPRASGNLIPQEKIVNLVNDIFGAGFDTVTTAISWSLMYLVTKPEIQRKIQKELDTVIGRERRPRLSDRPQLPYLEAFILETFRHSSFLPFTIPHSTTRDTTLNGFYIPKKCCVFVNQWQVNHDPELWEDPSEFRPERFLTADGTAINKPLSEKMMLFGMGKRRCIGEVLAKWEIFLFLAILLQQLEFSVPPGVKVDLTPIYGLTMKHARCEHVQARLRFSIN

CYP2C9 = CYP2C9 (Homo sapiens, UniProt P11712); settings: 20 μmol/L NMV, 10 pmol CYP, 1 mmol/L NADPH, 37 °C, 1 h
CYP2D6 = CYP2D6 (Homo sapiens, UniProt P10635); settings: 20 μmol/L NMV, 10 pmol CYP, 1 mmol/L NADPH, 37 °C, 1 h
[3] = hPXR/CYP3A mice pretreated with RCP (60 mg/kg, po, bid, 4 days), then oral RTV 20 mg/kg + NMV 60 mg/kg
CYP2B6 = target: T3, CYP2B6 (Homo sapiens, UniProt P20813); settings: 20 μmol/L NMV, 10 pmol CYP, 1 mmol/L NADPH, 37 °C, 1 h
T3 sequence (P20813 1-491): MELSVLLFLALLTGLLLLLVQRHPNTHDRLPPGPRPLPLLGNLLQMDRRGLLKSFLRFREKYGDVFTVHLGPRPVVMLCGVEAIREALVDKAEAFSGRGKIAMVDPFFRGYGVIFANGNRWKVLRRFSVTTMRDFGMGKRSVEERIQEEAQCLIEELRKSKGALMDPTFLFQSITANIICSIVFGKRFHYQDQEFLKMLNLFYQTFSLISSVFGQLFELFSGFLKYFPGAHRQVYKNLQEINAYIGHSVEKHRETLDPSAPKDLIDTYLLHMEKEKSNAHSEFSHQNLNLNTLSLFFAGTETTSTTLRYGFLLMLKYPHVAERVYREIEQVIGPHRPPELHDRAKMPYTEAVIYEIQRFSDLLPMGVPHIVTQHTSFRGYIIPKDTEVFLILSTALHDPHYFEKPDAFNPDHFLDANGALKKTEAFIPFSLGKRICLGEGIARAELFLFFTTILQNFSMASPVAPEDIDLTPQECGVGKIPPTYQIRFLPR

CYP3A4 mRNA = settings: hPXR/CYP3A mice; RIF 50 mg/kg in diet 7 days; RCP 60 mg/kg po bid 4 days
CYP3A protein = settings: RCP 60 mg/kg po bid 4 days
[4] = clinical studies, co-administration of carbamazepine (CYP3A inducer) ref 16

Chain of CYP2C19 (P33261 whole entry): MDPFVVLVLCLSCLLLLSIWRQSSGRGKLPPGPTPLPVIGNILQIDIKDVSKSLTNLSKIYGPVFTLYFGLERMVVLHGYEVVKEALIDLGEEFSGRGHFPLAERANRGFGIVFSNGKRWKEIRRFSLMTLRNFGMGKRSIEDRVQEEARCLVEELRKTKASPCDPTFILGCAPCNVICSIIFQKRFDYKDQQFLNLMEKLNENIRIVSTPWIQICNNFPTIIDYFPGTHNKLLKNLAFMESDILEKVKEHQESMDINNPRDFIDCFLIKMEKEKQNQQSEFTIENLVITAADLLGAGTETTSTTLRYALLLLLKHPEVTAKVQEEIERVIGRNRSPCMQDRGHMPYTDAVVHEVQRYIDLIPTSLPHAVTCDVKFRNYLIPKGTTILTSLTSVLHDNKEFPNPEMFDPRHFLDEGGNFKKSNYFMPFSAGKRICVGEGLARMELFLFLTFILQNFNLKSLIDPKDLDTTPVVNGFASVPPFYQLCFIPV
Chain of CYP3A4 (P08684 whole entry): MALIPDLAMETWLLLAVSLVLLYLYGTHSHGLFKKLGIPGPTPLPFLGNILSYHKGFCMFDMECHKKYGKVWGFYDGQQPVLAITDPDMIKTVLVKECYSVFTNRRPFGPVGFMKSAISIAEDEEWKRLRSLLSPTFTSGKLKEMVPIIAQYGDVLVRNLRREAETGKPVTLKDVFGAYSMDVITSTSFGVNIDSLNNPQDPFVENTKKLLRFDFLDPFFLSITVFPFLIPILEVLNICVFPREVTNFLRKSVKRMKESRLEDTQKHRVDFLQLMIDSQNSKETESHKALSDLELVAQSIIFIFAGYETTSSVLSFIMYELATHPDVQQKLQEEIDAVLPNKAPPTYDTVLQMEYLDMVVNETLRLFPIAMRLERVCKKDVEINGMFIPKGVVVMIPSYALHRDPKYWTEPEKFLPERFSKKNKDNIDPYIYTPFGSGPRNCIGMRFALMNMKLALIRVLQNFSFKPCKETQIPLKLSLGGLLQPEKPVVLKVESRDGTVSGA
Chain of CYP2D6 (P10635 whole entry): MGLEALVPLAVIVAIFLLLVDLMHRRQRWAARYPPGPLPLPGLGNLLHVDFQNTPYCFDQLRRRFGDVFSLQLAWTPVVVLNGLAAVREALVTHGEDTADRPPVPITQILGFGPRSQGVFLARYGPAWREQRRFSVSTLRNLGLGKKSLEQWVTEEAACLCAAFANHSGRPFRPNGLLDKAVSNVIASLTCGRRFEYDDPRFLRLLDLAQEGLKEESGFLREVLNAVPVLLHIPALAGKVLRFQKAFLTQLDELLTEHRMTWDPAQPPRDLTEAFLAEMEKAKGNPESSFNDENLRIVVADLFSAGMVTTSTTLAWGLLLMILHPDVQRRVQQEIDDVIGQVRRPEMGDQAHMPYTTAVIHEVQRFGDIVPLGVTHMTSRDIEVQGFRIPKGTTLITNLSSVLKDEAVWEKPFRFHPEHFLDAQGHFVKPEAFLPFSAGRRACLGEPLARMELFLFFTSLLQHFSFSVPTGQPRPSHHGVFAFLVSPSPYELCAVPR
Chain of CYP3A5 (P20815 whole entry): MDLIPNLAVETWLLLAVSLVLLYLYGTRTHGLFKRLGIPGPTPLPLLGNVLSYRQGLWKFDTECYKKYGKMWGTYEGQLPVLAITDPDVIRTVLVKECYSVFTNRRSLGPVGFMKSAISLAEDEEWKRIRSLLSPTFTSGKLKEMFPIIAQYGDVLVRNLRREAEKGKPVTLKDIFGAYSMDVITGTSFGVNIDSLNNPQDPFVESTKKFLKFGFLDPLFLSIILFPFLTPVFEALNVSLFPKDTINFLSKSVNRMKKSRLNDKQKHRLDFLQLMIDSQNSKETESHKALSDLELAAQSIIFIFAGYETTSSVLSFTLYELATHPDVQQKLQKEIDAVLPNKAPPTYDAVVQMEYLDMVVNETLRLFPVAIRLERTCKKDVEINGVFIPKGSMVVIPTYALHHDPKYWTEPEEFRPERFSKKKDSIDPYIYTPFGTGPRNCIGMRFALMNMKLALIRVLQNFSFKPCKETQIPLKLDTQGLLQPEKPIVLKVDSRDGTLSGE
Chain of CYP2C9 (P11712 whole entry): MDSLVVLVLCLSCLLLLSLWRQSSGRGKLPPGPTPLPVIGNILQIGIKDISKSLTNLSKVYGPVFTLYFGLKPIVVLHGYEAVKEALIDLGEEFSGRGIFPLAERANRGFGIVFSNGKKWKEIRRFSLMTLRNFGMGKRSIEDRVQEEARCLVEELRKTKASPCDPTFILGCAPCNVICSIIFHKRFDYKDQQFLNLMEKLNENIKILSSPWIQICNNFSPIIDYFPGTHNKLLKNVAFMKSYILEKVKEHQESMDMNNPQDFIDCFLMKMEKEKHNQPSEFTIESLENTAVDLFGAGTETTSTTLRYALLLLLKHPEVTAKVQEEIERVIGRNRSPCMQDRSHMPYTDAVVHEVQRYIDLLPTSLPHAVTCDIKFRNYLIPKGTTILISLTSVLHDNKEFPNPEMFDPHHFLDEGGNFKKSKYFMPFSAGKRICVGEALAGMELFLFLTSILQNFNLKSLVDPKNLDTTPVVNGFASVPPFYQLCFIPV
Chain of CYP2E1 (P05181 whole entry): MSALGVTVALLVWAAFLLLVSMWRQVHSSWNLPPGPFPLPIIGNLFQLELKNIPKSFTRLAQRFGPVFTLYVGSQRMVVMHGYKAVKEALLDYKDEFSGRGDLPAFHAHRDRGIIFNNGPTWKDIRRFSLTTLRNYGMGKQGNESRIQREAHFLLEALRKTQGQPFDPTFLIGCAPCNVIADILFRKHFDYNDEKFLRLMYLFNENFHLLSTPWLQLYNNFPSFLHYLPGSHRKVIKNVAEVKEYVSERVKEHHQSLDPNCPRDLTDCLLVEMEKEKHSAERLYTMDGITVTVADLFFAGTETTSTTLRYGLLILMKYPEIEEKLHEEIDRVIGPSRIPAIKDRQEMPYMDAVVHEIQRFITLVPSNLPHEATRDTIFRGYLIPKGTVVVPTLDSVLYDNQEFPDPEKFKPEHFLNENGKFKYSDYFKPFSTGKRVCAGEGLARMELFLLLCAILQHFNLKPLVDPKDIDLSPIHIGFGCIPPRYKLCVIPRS

## CC(C)(C)[C@H](NC(=O)C(F)(F)F)C(=O)N1C[C@H]2[C@@H]([C@H]1C(=O)N[C@H](C#N)C[C@@H]1CCNC1=O)C2(C)C [NMV, nirmatrelvir]
CYP2A6
  contribution of CYP2A6 to NMV metabolism: did not contribute to NMV metabolism
CYP3A4
  contribution of CYP3A4 to NMV metabolism (formation of M1–M7): contributed the most to all the 7 metabolic pathways of NMV
[1]
  number of NMV metabolites identified in the incubation with HLM: 7
CYP3A5
  contribution of CYP3A5 to NMV metabolism (formation of M1–M7): also involved in the 7 metabolic pathways of NMV, especially for the production of M4 and M5
CYP2C19
  contribution of CYP2C19 to NMV metabolism: did not contribute to NMV metabolism
[2]; [4]
  decrease in AUC of NMV: ~50%
  decrease in Cmax of NMV: ~50%
[2]; healthy subjects, CYP3A4 inducer carbamazepine, Paxlovid fact sheet ref 16
  reduction for NMV exposure: ~50%
[2]; healthy subjects, CYP3A4 inhibitor itraconazole, Paxlovid fact sheet ref 16
  change of NMV (systemic) exposure (in words): increased the systemic exposure of NMV
CYP2E1
  contribution of CYP2E1 to NMV metabolism: did not contribute to NMV metabolism
CYP1A2
  contribution of CYP1A2 to NMV metabolism: did not contribute to NMV metabolism
CYP2C9
  contribution of CYP2C9 to NMV metabolism: did not contribute to NMV metabolism
CYP2D6
  contribution of CYP2D6 to NMV metabolism: did not contribute to NMV metabolism
[3]
  change of AUC in serum vs control group (in words): significantly decreased
  change of Cmax in serum vs control group (in words): significantly decreased
CYP2B6
  contribution of CYP2B6 to NMV metabolism: did not contribute to NMV metabolism

## CC[C@H]1CN2CC[C@]3(C(=O)Nc4ccccc43)[C@@H]2C[C@@H]1/C(=C\OC)C(=O)OC [RCP, rhynchophylline]
CYP3A4 mRNA
  mRNA expression of CYP3A4 in the liver vs control: significantly upregulated
CYP3A protein; Pxr-null/CYP3A mice
  increase of protein level of CYP3A in the liver vs control: but not in Pxr-null/CYP3A mice
CYP3A protein; hPXR/CYP3A mice, RIF 50 mg/kg in diet 7 days
  protein level of CYP3A in the liver vs control: increased the protein level of CYP3A

## CC(C)c1nc(CN(C)C(=O)N[C@H](C(=O)N[C@@H](Cc2ccccc2)C[C@H](O)[C@H](Cc2ccccc2)NC(=O)OCc2cncs2)C(C)C)cs1 [RTV, ritonavir]
[3]
  change of AUC in serum vs control group (in words): also decreased
  change of Cmax in serum vs control group (in words): also decreased
